# Where “and” joins values, the source holds several entries; their conditions need not be identical. Identical values can stand only once.
# How the values were obtained:
# wild-type plants = conditions: plants not expressing D-amino acid oxidase; cited from earlier work
# [1] = test system: immature embryos from spring barley variety Golden Promise; test: In vitro germination bioassay of immature embryos on medium with D-serine or D-alanine; format: cell-based, barley (Hordeum vulgare L.); conditions: for Immature Embryos (%) germinated in vitro: scored after 14 days; for concentration lethal in the bioassay: immature embryo germination; for concentration above which seedlings were susceptible to the selection: seedlings from embryos isolated without endosperms
# Experimental: In order to establish effective concentrations of D-Serine and D-Alanine on inhibiting growth of tissue cultured barley cells, a bioassay system using immature embryos was applied. Immature embryos from spring barley variety Golden Promise 2 mm in length were dissected onto germination PAW-5 hormone free medium with D-serine or D-alanine in range of concentrations between 0 and 5 mM and maintained at 25° C. with a 16 h photoperiod. The number of germinated embryos with well-developed shoots and brunched roots were scored after 14 days.
# [2] = test system: immature embryos / embryogenic callus from Golden Promise; test: Agrobacterium-mediated barley transformation with pRLM166 (dsdA), PAW media, selection on D-Serine; format: cell-based, barley (Hordeum vulgare L.); conditions: construct pRLM166, selection 5 mM D-Serine
# [3] = test system: immature embryos / embryogenic callus from Golden Promise; test: Agrobacterium-mediated barley transformation with pRLM167 or pRLM205 (dsdA, dao1, PAT), PAB media, selection on D-Serine or bialaphos; format: cell-based, barley (Hordeum vulgare L.)
# [4] = 0.5 mM in PAW-5 hormone free medium
# [5] = 1 mM in PAW-5 hormone free medium
# [6] = 2 mM in PAW-5 hormone free medium
# [7] = 5 mM in PAW-5 hormone free medium
# [8] = construct pRLM167, selection 5 mM D-Serine or 5 mg/l bialaphos
Structure (SMILES),toxicity to wild-type plants (wild-type plants),"Immature Embryos (%) germinated in vitro [1, 4] [%]","Immature Embryos (%) germinated in vitro [1, 5] [%]","Immature Embryos (%) germinated in vitro [1, 6] [%]","Immature Embryos (%) germinated in vitro [1, 7] [%]",concentration lethal in the bioassay [1] [mM],concentration above which seedlings were susceptible to the selection [1],"TE % (Transformation Efficiency, % of transgenic plants out of the explants) [2]","TE % (Transformation Efficiency, % of transgenic plants out of the explants) [3, 8] [%]","TE % (Transformation Efficiency, % of transgenic plants out of the explants) ([3]; construct pRLM205 (dao1), selection 5 mM D-Serine) [%]"
C[C@@H](N)C(=O)O [D-alanine],highly phytoptoxic to plants,37,0,0,0,1,> 1 mM,,,
CC[C@@H](C)[C@@H](N)C(=O)O [D-isoleucine],not toxic to wild-type plants,,,,,,,,,
N[C@H](CO)C(=O)O [D-serine],highly phytoptoxic to plants,49,17,0,0,2,higher than 2 mM,2.2% and 2.1%,4.6,3.6
CC(C)[C@@H](N)C(=O)O [D-valine],not toxic to wild-type plants,,,,,,,,,
C[C@H](NC(=O)[C@H](C)NC(=O)[C@@H](N)CCP(C)(=O)O)C(=O)O [bialaphos],,,,,,,,,3.4,

# From patent US20090300800A1, “D-Amino Acid a Selectable Marker for Barley (Hordeum Vulgare L.) Transformation” (BASF Plant Science GmbH, priority 2005, published 2009)
